This is an account of results in patent US20240407414A1, “DIHYDROCHALCONE DERIVATIVES” (SYMRISE AG, priority 2021, published 2024).

Where “and” joins values, the source holds several entries; their conditions need not be identical. Equal entries are not always repeated. Entries after “also recorded” stand apart in the source; their conditions may differ.

Assay [1] is described as follows: Sweet taste / sweetness enhancing properties of 6″-O-acetylphloridzin. The conditions noted are these: in vivo. The text has this: It can therefore not be concluded that any dihydrochalcone glycoside carrying an acetyl substituent will taste sweet or be able to enhance or modulate sweetness.
A short description of assay [2]: Descriptor intensities (0-9) in orange softdrink base, panel of five flavorists. In kind it is in vivo. Particulars: for Lingering sweetness (0-9) A / Off note (0-9) A / Onset sweetness (0-9) A / Overall sweetness (0-9) A / acidity (0-9) A / fruity (0-9) A / juicy (0-9) A / mouthfeel (0-9) A / orange (0-9) A: A: substance alone in orange softdrink base; for Lingering sweetness (0-9) A / Off note (0-9) A / Onset sweetness (0-9) A / Overall sweetness (0-9) A / acidity (0-9) A / fruity (0-9) A / juicy (0-9) A / mouthfeel (0-9) A / orange (0-9) A / Lingering sweetness (0-9) B / Off note (0-9) B / Onset sweetness (0-9) B / Overall sweetness (0-9) B / acidity (0-9) B / fruity (0-9) B / juicy (0-9) B / mouthfeel (0-9) B / orange (0-9) B: RS 200, PD 120, HT 10, PH 30 mg/kg, n=5; for Lingering sweetness (0-9) B / Off note (0-9) B / Onset sweetness (0-9) B / Overall sweetness (0-9) B / acidity (0-9) B / fruity (0-9) B / juicy (0-9) B / mouthfeel (0-9) B / orange (0-9) B: B: + 20 mg/kg G92828 in orange softdrink base; for Lingering sweetness (0-9) Δ / Off note (0-9) Δ / Onset sweetness (0-9) Δ / Overall sweetness (0-9) Δ / acidity (0-9) Δ / fruity (0-9) Δ / juicy (0-9) Δ / mouthfeel (0-9) Δ / orange (0-9) Δ: difference B vs A (effect of 20 mg/kg G92828). As to the method: Different descriptors relevant for the overall liking of an orange softdrink were applied and the differences in intensities of each descriptor (Δ) of FMP (A) to FMP+ compound (1) (B) were determined by a panel of five flavorists (n=5) and given as intensities from 0-9 as shown in Tables 4-12. The panelists were asked to neutralise with tap water between each sample and the intensity of the descriptors of each sample were defined before tasting the next sample. The tasting of each RS, PD, HT or PH (A) were followed by the samples with added RS, PD, HT or PH+compound (1) (B) with each being compared to the intensities of the base.

Assay [3] in a line: Sensory profile of sugar solution with added compounds. In kind it is in vivo. The conditions noted are these: 80 mg/kg in 5% sucrose solution.
Assay [4] is described as follows: Intrinsic sweetness by Duo test against 1.5% sucrose. In kind it is in vivo. As to the method:
200 g/l L. litseifolius leaf extract (47% trilobatin, 7% phloridizin) was dissolved in triacetin and reacted with lipase Novozyme 435 for 6 h at 80° C. After cooling the mixture, the solution was filtrated. The solution contained 4.2% compound 1. The intrinsic sweetness of the solution was determined by a Duo test comparing different concentrations of this solution with a 1.5% sucrose sample. It turned out that 0.15% of the solution (containing 63 mg/kg compound 1) was as sweet as 1.5% sucrose.
The intrinsic sweetness of pure compound (1) (>95%) was determined by a panel of 20 trained panellists. Thereby, a 1.5% sucrose solution was compared by a Duo test with 65 mg/kg of compound (1) in water. […] The intrinsic sweetness of compound (1) in a mixture of trilobatin and diacetyl trilobatins was similar than of pure compound (1).

The nature of assay [5]: Duo test (paired comparison, trained sensory panel) of compounds against 5% sucrose solution. In kind it is in vivo. Particulars: 50 mg/kg in 5% sucrose solution; for sweet modul. activity (%): 20 panelists, perceived sweeter than without addition. The text has this:
The sensory impact of trilobatin and compound (1) have been compared by a trained sensory panel (Table 1) using a series of paired comparison tests. The samples were coded and randomized (referred to as Duo test):
Each of compound (1) and trilobatin has been compared with a 5% sucrose solution in water.

The conditions of assay [6]: cited from earlier work.
Where [7] appears, read: soft drink base and in combination with RS, PD, HT and PH.

With `CC(=O)OC[C@H]1O[C@@H](Oc2cc(O)cc(O)c2C(=O)CCc2ccc(O)cc2)[C@H](O)[C@@H](O)[C@@H]1O` [6″-O-Acetylphloridzin], in assay [1], the “sweet taste or sweetness enhancing properties” value is listed as “did not show any sweet taste or sweetness enhancing properties”.

For the compound `COc1ccc([C@@H]2CC(=O)c3c(O)cc(O)cc3O2)cc1O` [HT, Hesperetin], in assay [2], the “Lingering sweetness (0-9) A” value is listed as 0.0, the “Off note (0-9) A” value is 0.0, the “Onset sweetness (0-9) A” value worked out at 5.0 and the “Overall sweetness (0-9) A” value is given as 6.0. Also, in assay [2], the “acidity (0-9) A” value is 4.0, the “fruity (0-9) A” value is 5.0, the “juicy (0-9) A” value was 4.0 and the “mouthfeel (0-9) A” value is 4.0. Also, in assay [2], the “orange (0-9) A” value is reported as 5.0, the “Lingering sweetness (0-9) B” value was found to be 0.0, the “Off note (0-9) B” value was 0.0 and the “Onset sweetness (0-9) B” value was 6.0. Besides, in assay [2], the “Overall sweetness (0-9) B” value is 7.5, the “acidity (0-9) B” value came out at 3.5, the “fruity (0-9) B” value was 5.0 and the “juicy (0-9) B” value is given as 5.0. In addition, in assay [2], the “mouthfeel (0-9) B” value is 4.5, the “orange (0-9) B” value is recorded as 5.0, the “Lingering sweetness (0-9) Δ” value worked out at 0.0 and the “Off note (0-9) Δ” value came to 0.0. In assay [2], the “Onset sweetness (0-9) Δ” value was found to be 1.0, the “Overall sweetness (0-9) Δ” value came to 1.5, the “acidity (0-9) Δ” value is on record as −0.5 and the “fruity (0-9) Δ” value is on record as 0.0. Also, in assay [2], the “juicy (0-9) Δ” value came out at 1.0, the “mouthfeel (0-9) Δ” value stood at 0.5 and the “orange (0-9) Δ” value was 0.0.

As to `O=C(CCc1ccc(O)cc1)c1c(O)cc(O)cc1O` [PH, Phloretin], in assay [2], the “Lingering sweetness (0-9) A” value was 0.0, the “Off note (0-9) A” value is 0.0, the “Onset sweetness (0-9) A” value is reported as 5.0 and the “Overall sweetness (0-9) A” value turned out to be 6.5. Also, in assay [2], the “acidity (0-9) A” value is on record as 3.5, the “fruity (0-9) A” value is on record as 5.5, the “juicy (0-9) A” value is recorded as 5.0 and the “mouthfeel (0-9) A” value worked out at 4.0. In assay [2], the “orange (0-9) A” value is listed as 5.0, the “Lingering sweetness (0-9) B” value stood at 0.0, the “Off note (0-9) B” value is 0.0 and the “Onset sweetness (0-9) B” value was found to be 6.0. For the same compound, in assay [2], the “Overall sweetness (0-9) B” value is reported as 6.5, the “acidity (0-9) B” value was determined as 3.0, the “fruity (0-9) B” value amounted to 5.5 and the “juicy (0-9) B” value turned out to be 5.5. In assay [2], the “mouthfeel (0-9) B” value is given as 5.0, the “orange (0-9) B” value was 5.0, the “Lingering sweetness (0-9) Δ” value worked out at 0.0 and the “Off note (0-9) Δ” value is recorded as 0.0. For the same compound, in assay [2], the “Onset sweetness (0-9) Δ” value worked out at 1.0, the “Overall sweetness (0-9) Δ” value worked out at 0.0, the “acidity (0-9) Δ” value was −0.5 and the “fruity (0-9) Δ” value turned out to be 0.0. In addition, in assay [2], the “juicy (0-9) Δ” value worked out at 0.5, the “mouthfeel (0-9) Δ” value worked out at 1.0 and the “orange (0-9) Δ” value is reported as 0.0.

With `CC(=O)OC[C@H]1O[C@@H](Oc2cc(O)c(C(=O)CCc3ccc(O)cc3)c(O)c2)[C@H](O)[C@@H](O)[C@@H]1O` [compound (1), 6″-O-acetyltrilobatin], in assay [3], the Aftertaste amounted to 1, the Impact worked out at 4, the Intensity amounted to 6 and the Mouthfeel is given as 5. In assay [4] (in enzymatically acetylated L. litseifolius leaf extract solution (4.2% compound 1) dosed at 0.15%), the “concentration of compound 1 contained in solution as sweet as 1.5% sucrose” value turned out to be 63 mg/kg. The “intrinsic sweetness in a mixture of trilobatin and diacetyl trilobatins compared with pure compound” value in assay [4] (in vivo) was “similar”. For the same compound, in assay [2], the “Lingering sweetness (0-9) B” value was 0.0, the “Off note (0-9) B” value is 0.0, the “Onset sweetness (0-9) B” value is given as 4.5 and the “Overall sweetness (0-9) B” value turned out to be 6.0. For the same compound, in assay [2], the “acidity (0-9) B” value was found to be 3.5, the “fruity (0-9) B” value is reported as 5.0, the “juicy (0-9) B” value was found to be 4.0 and the “mouthfeel (0-9) B” value is listed as 4.0. Besides, in assay [2], the “orange (0-9) B” value is recorded as 5.0, the “Lingering sweetness (0-9) Δ” value stood at 0.0, the “Off note (0-9) Δ” value was 0.0 and the “Onset sweetness (0-9) Δ” value is listed as 0.5. For the same compound, in assay [2], the “Overall sweetness (0-9) Δ” value came out at 1.0, the “acidity (0-9) Δ” value is −0.5, the “fruity (0-9) Δ” value is given as 0.0 and the “juicy (0-9) Δ” value was 0.0. The “mouthfeel (0-9) Δ” value in assay [2] is 0.5. Also, in assay [2] (base, RS, HT and PH), the “effect on perceived acidity” value is reported as “reducing perceived acidity”. Further, in assay [2] (in combination with PD), the “effect on acidity” value is “no reduction in acidity” and the “effect on lingering aftertaste” value is given as “slightly reduced”. Besides, the “effect on overall sweetness” value in assay [2] (in combination with PH, compared to PH) is listed as “no increase in overall sweetness”. For the same compound, the “effect on lingering aftertaste” value in assay [2] (in combination with RS) was “slight increase in lingering aftertaste”. Besides, the “effect on fruity notes” value in assay [2] (in combination with RS and PD) is listed as “increasing fruity notes”. Also, the “effect on overall sweetness” value in assay [2] (in combination with RS, PD and HT) was “increased”. The “effect on onset sweetness” value in assay [2] (in combination with RS, PD, HT and PH) is listed as “increases the onset sweetness”. In addition, the “effect on juicy character” value in assay [2] (in combination with each tested FMP) is “increasing the juicy character”. In addition, in assay [2] (setting [7]), the “effect on intensity of orange flavor” value is given as “no impact” and the “effect on off notes” value is on record as “no impact”. For the same compound, the “effect on juicy notes” value in assay [2] (test base alone) is “no effect”. The “effect on mouthfeel” value in assay [2] (test base and every tested FMP) was “improves the mouthfeel”. Moreover, in assay [5], the “significance of sweet modulating activity / sensory effect” value is given as “significant”; the “sweet modul. activity (%)” value is 27.5% and 27.54%.

In assay [3], `O=C(CCc1ccc(O)cc1)c1c(O)cc(O[C@@H]2O[C@H](CO)[C@@H](O)[C@H](O)[C@H]2O)cc1O` [trilobatin, phloretin-4′-β-D-glucopyranoside] had an Aftertaste of 1, an Impact of 3, an Intensity of 4 and a Mouthfeel of 5. In assay [5], the “significance of sweet modulating activity / sensory effect” value is “did not have a significant sensory effect; also recorded: did not show a significant sensory effect” and the “sweet modul. activity (%)” value was determined as 1.66%. Further, the “taste at 20 mg/kg” value in assay [6] (20 mg/kg) was “does not taste sweet”. In assay [6] (100 mg/kg, compared to 0.5% sucrose solution), the “taste at 100 mg/kg” value is “weakly sweet”. The “concentration above which sweetness can be detected” value in assay [6] (in vivo) was “above 60 mg/kg”.
